From patent publication US6610846B1, “Heteroaromatic glucokinase activators” (Hoffman-La Roche Inc., priority 1999, dated 2003)

Columns and labels:
C57BL/6J mice = experiment: Glucokinase activator in vivo screen (blood glucose after oral dosing); conditions: administered orally, 50 mg/kg, C57BL/6J mice fasted two hours; decrease in blood glucose compared to vehicle over six hours (Example B)
Protocol: Glucokinase Activator In Vivo Screen Protocol
C57BL/6J mice are orally dosed via gavage with Glucokinase (GK) activator at 50 mg/kg body weight following a two hour fasting period. Blood glucose determinations are made five times during the six hour post-dose study period. Mice (n=6) are weighed and fasted for a two hour period prior to oral treatment.

| melting point [°C] | Compound | glucokinase activator in vivo activity (C57BL/6J mice) |
| --- | --- | --- |
| 189 to 191 | O=C(Nc1nccs1)C(CC1CCCC1)c1ccc(S(=O)(=O)C(F)(F)F)cc1 (stereo not drawn) [Example 11(A), 3-Cyclopentyl-N-thiazol-2-yl-2-(4-trifluoromethanesulfonyl-phenyl)-propionamide] | excellent glucokinase activator in vivo activity |
| 151 to 153 | O=C(Nc1ccccn1)C(CC1CCCC1)c1ccc(S(=O)(=O)C(F)(F)F)cc1 (stereo not drawn) [Example 43(A), 3-Cyclopentyl-N-pyridin-2-yl-2-(4-trifluoromethanesulfonyl-phenyl)-propionamide] | excellent glucokinase activator in vivo activity |
| 92 to 95 | CS(=O)(=O)c1ccc(C(CC2CCCC2)C(=O)Nc2ccccn2)cc1[N+](=O)[O-] (stereo not drawn) [Example 44, 3-Cyclopentyl-2-(4-methanesulfonyl-3-nitrophenyl)-N-pyridin-2-yl-propionamide] | excellent glucokinase activator in vivo activity |
| – | O=C(Nc1ccc(Cl)cn1)[C@H](CC1CCCC1)c1ccc(Cl)c(Cl)c1 [Example 54(A), N-(5-Chloro-pyridin-2-yl)-3-cyclopentyl-2(R)-(3,4-dichloro-phenyl)-propionamide] | excellent glucokinase activator in vivo activity |
| – | O=C(Nc1ccccn1)[C@H](CC1CCCC1)c1ccc(Cl)c(Cl)c1 [Example 54(B)(a), 3-Cyclopentyl-2(R)-(3,4-dichloro-phenyl)-N-pyridin-2-yl-propionamide] | excellent glucokinase activator in vivo activity |
| 48 to 52 | O=C(Nc1ccccn1)C(CC1CCCC1)c1ccc(Cl)c([N+](=O)[O-])c1 (stereo not drawn) [Example 65, 2-(4-Chloro-3-nitro-phenyl)-3-cyclopentyl-N-pyridin-2-yl-propionamide] | excellent glucokinase activator in vivo activity |
| 40 to 44 | O=C(Nc1ccccn1)C(CC1CCCC1)c1ccc(C(F)(F)F)c(F)c1 (stereo not drawn) [Example 71, 3-Cyclopentyl-2-(3-fluoro-4-trifluoromethyl-phenyl)-N-pyridin-2-yl-propionamide] | excellent glucokinase activator in vivo activity |
| 106 to 107 | CS(=O)(=O)c1ccc(C(CC2CCCC2)C(=O)Nc2nccs2)cc1Br (stereo not drawn) [Example 72, 2-(3-Bromo-4-methanesulfonyl-phenyl)-3-cyclopentyl-N-thiazol-2-yl-propionamide] | excellent glucokinase activator in vivo activity |
| 99 to 101 | CS(=O)(=O)c1ccc(C(CC2CCCC2)C(=O)Nc2ccccn2)cc1Br (stereo not drawn) [Example 73, 2-(3-Bromo-4-methanesulfonyl-phenyl)-3-cyclopentyl-N-pyridin-2-yl-propionamide] | excellent glucokinase activator in vivo activity |
| 145 to 148 | CS(=O)(=O)c1ccc(C(CC2CCCC2)C(=O)Nc2nccs2)cc1C#N (stereo not drawn) [Example 75, 2-(3-Cyano-4-methanesulfonyl-phenyl)-3-cyclopentyl-N-thiazol-2-yl-propionamide] | excellent glucokinase activator in vivo activity |
| 87 to 90 | CS(=O)(=O)c1ccc(C(CC2CCCC2)C(=O)Nc2ccccn2)cc1C#N (stereo not drawn) [Example 76, 2-(3-Cyano-4-methanesulfonyl-phenyl)-3-cyclopentyl-N-pyridin-2-yl-propionamide] | excellent glucokinase activator in vivo activity |
| 178 to 179 | CCS(=O)(=O)c1ccc(C(CC2CCCC2)C(=O)Nc2nccs2)cc1 (stereo not drawn) [Example 77, 3-Cyclopentyl-2-(4-ethanesulfonyl-phenyl)-N-thiazol-2-yl-propionamide] | excellent glucokinase activator in vivo activity |
| 95 to 100 | CS(=O)(=O)c1ccc(C(CC2CCCC2)C(=O)Nc2nccs2)cc1C(F)(F)F (stereo not drawn) [Example 89(A), 3-Cyclopentyl-2-(4-methanesulfonyl-3-trifluoromethyl-phenyl)-N-thiazol-2-yl-propionamide] | excellent glucokinase activator in vivo activity |
| – | CS(=O)(=O)c1ccc(C(CC2CCCC2)C(=O)Nc2ccccn2)cc1Cl (stereo not drawn) [Example 92, 2-(3-Chloro-4-methanesulfonyl-phenyl)-3-cyclopentyl-N-pyridin-2-yl-propionamide] | excellent glucokinase activator in vivo activity |
| – | CS(=O)(=O)c1ccc(C(CC2CCCC2)C(=O)Nc2ccc(Br)cn2)cc1Cl (stereo not drawn) [Example 93, N-(5-Bromo-pyridin-2-yl)-2-(3-chloro-4-methanesulfonyl-phenyl)-3-cyclopentyl-propionamide] | excellent glucokinase activator in vivo activity |
| – | CS(=O)(=O)c1ccc([C@@H](CC2CCCC2)C(=O)Nc2ccc(Br)cn2)cc1Cl [Example 99, N-(5-Bromo-pyridin-2-yl)-2(R)-(3-chloro-4-methanesulfonyl-phenyl)-3-cyclopentyl-propionamide] | excellent glucokinase activator in vivo activity |

| melting point [°C] | Compound | glucokinase activator in vivo activity (C57BL/6J mice) |
| --- | --- | --- |
| – | O=C(Nc1ccc(CO)cn1)[C@H](CC1CCCC1)c1ccc(Cl)c(Cl)c1 [Example 106, 3-Cyclopentyl-2(R)-(3,4-dichloro-phenyl)-N-(5-hydroxymethyl-pyridin-2-yl)propionamide] | excellent glucokinase activator in vivo activity |
| – | CS(=O)(=O)c1ccc([C@@H](CC2CCCC2)C(=O)Nc2ncc(Br)s2)cc1 [Example 133, N-(5-Bromo-thiazol-2-yl)-3-cyclopentyl-2(R)-(4-methanesulfonyl-phenyl)-propionamide] | excellent glucokinase activator in vivo activity |
| – | Cc1csc(NC(=O)[C@H](CC2CCCC2)c2ccc(S(C)(=O)=O)c(Cl)c2)n1 [Example 139, 2(R)-(3-Chloro-4-methanesulfonyl-phenyl)-3-cyclopentyl-N-(4-methyl-thiazol-2-yl)-propionamide] | excellent glucokinase activator in vivo activity |
| – | Cc1ccc(NC(=O)[C@H](CC2CCCC2)c2ccc(S(C)(=O)=O)c(Cl)c2)nc1 [Example 140, 2(R)-(3-Chloro-4-methanesulfonyl-phenyl)-3-cyclopentyl-N-(5-methyl-pyridin-2-yl)-propionamide] | excellent glucokinase activator in vivo activity |
| – | CS(=O)(=O)c1ccc(C(CC2CCCC2)C(=O)Nc2ccncn2)cc1Cl (stereo not drawn) [Example 141, 2-(3-Chloro-4-methanesulfonyl-phenyl)-3-cyclopentyl-N-pyrimidin-4-yl-propionamide] | excellent glucokinase activator in vivo activity |
| – | CS(=O)(=O)c1ccc([C@@H](CC2CCCC2)C(=O)Nc2ccncn2)cc1Cl [Example 142, 2(R)-(3-Chloro-4-methanesulfonyl-phenyl)-3-cyclopentyl-N-pyrimidin-4-yl-propionamide] | excellent glucokinase activator in vivo activity |
| – | Cc1nccc(NC(=O)C(CC2CCCC2)c2ccc(S(C)(=O)=O)c(Cl)c2)n1 (stereo not drawn) [Example 143, 2-(3-Chloro-4-methanesulfonyl-phenyl)-3-cyclopentyl-N-(2-methyl-pyrimidin-4-yl)-propionamide] | excellent glucokinase activator in vivo activity |
| – | Cc1nccc(NC(=O)[C@H](CC2CCCC2)c2ccc(S(C)(=O)=O)c(Cl)c2)n1 [Example 144, 2(R)-(3-Chloro-4-methanesulfonyl-phenyl)-3-cyclopentyl-N-(2-methyl-pyrimidin-4-yl)-propionamide] | excellent glucokinase activator in vivo activity |
| – | Cc1nccc(NC(=O)C(CC2CCCC2)c2ccc(S(C)(=O)=O)c(Br)c2)n1 (stereo not drawn) [Example 148(B)(a), 2-(3-Bromo-4-methanesulfonyl-phenyl)-3-cyclopentyl-N-(2-methyl-pyrimidin-4-yl)-propionamide] | excellent glucokinase activator in vivo activity |
| – | CS(=O)(=O)c1ccc(C(CC2CCCC2)C(=O)Nc2cnccn2)cc1Br (stereo not drawn) [Example 149, 2-(3-Bromo-4-methanesulfonyl-phenyl)-3-cyclopentyl-N-pyrazin-2-yl-propionamide] | excellent glucokinase activator in vivo activity |
| – | CS(=O)(=O)c1ccc(C(CC2CCCC2)C(=O)Nc2ccncn2)cc1C(F)(F)F (stereo not drawn) [Example 155(B)(a), 3-Cyclopentyl-2-(4-methanesulfonyl-3-trifluoromethyl-phenyl)-N-pyrimidin-4-yl-propionamide] | excellent glucokinase activator in vivo activity |
| – | CS(=O)(=O)c1ccc(C(CC2CCCC2)C(=O)Nc2cnccn2)cc1C(F)(F)F (stereo not drawn) [Example 155(B)(b), 3-Cyclopentyl-2-(4-methanesulfonyl-3-trifluoromethyl-phenyl)-N-pyrazin-2-yl-propionamide] | excellent glucokinase activator in vivo activity |
| – | Cc1nccc(NC(=O)C(CC2CCCC2)c2ccc(S(C)(=O)=O)c(C(F)(F)F)c2)n1 (stereo not drawn) [Example 155(B)(c), 3-Cyclopentyl-2-(4-methanesulfonyl-3-trifluoromethyl-phenyl)-N-(2-methyl-pyrimidin-4-yl)-propionamide] | excellent glucokinase activator in vivo activity |
| – | CS(=O)(=O)c1ccc([C@@H](CC2CCCC2)C(=O)Nc2cnccn2)cc1C(F)(F)F [Example 157(B)(a), 3-Cyclopentyl-2(R)-(4-methanesulfonyl-3-trifluoromethyl-phenyl)-N-pyrazin-2-yl-propionamide] | excellent glucokinase activator in vivo activity |
| – | Cc1nccc(NC(=O)[C@H](CC2CCCC2)c2ccc(S(C)(=O)=O)c(C(F)(F)F)c2)n1 [Example 157(B)(b), 3-Cyclopentyl-2(R)-(4-methanesulfonyl-3-trifluoromethyl-phenyl)-N-(2-methyl-pyrimidin-4-yl)-propionamide] | excellent glucokinase activator in vivo activity |
